Data from patent US5945404A, “21-Substituted steroid compound” (priority 1993, dated 1999).
Where two headings read alike, the source gives them in different places.

Tests used:
[1] = tested on: granuloma; assay: Inhibitory Effects on Granuloma Growth (Paper Disk Method); assay type: in vivo, male Sprague-Dawley rats; settings: ointment 0.1%, 50 mg once a day, 7 days; for change in vivo at 0.1 %, 50 mg: Rattus norvegicus, topical, 168 h
Procedure: (§1) Ointment to be tested was prepared usign white soft paraffin as the base and containing dexamethasone at 0.1% concentration.
Groups of 5 male Sprague-Dawley rats each weighing 150-170 g were used. Under ether anesthesia, the dorsum of animals was closely clipped, and medianly incised. After each one pre-weighed paper disk (8-mm diameter, 1-mm thick, weighing about 30 mg; Toyo-Roshi filter paper) was inserted subcutaneously into both sides of the dorsal incision, the incision was sutured. In order to prevent bacterial infection, penicillin G potassium salt (2,000 units) per rat was intramascularly injected after the surgery. Base or ointment to be tested (50 mg each) was rubbed carefully into the skin over the paper disk inserted site, for 30 seconds once a day for the duration of 7 days. Rats were slipped plastic cangs on to prevent them from licking the drug applied sites. On the 8th day of the test, rats were sacrificed under ether anesthesia, and granulomas were carefully excised. Granulomas were dried at 40° C. for 24 h, and their dry weights were recorded.
Inhibitory effects of dexamethasone derivatives on the weight increase of granuloma of experimental animals as compared with those of control animals are shown as per cent of inhibition ov er the control in Table 1. Figures wihth asterisks in the table indicate signfiicant difference. The same will be applied to the following other tables.

[2] = Effects of 7-day Ointment Rubbing on Organ Weights; assay type: in vivo, male Sprague-Dawley rats; settings: Table 7, 7-day rubbing, 100 mg ointment once daily; for Leukocyte count: normal animal 0.0
Procedure: as §1
Groups of 5 male Sprague-Dawley rats each weighing 150-170 g were used. Under ether anesthesia, the dorsum of animals were closely clipped, and test drug (100 mg) was carefully rubbed in the clipped dorsal area for 30 seconds. Rats were slipped on plastic cang to prevent them from licking the drug-applied area. After the drug rubbing once daily for 7 days, on the 8th day rats were anesthetized with ether. Blood samples were collected, and thymus, spleen, and adrenal were excised and measured their wet weights. Furthermore, leukocyte number was counted with the blood samples collected. Results were expressed as the per cent of change of body weight on the 8th day as compared with that on the 1st day of rubbing. Similarly, the per cent of change in weights of thymus, spleen and adrenal on the 8th day as compared with that of the control animlas were shown.

[3] = tested on: croton oil-induced ear edema; assay: Inhibitory Effects on Croton oil-induced Ear Lobe Edema; assay type: in vivo, male ddY mice; settings: Table 5, ointment 20 mg, mouse ear lobe
Procedure: as §1
Groups of 10 male ddY mice each weighing about 25 g were used. Ointment to be tested (20 mg) was rubbed in the right-side ear lobe, and, 30 min later, a drop of 4 % croton oil dissolved in either was applied to it. Thirty minute after that treatment, mice were sacrificed. Ear lobes on both sides were punched out in the size of 5-mm diameter, and weighed. Results were expressed by calculating the per cent of weight change of the right edema ear as compared with that of the untreated left ear, and compared with that of the control.

[4] = tested on: croton oil-induced granuloma; assay: Croton Oil-induced Granuloma (granuloma pouch); assay type: in vivo, male Sprague-Dawley rats; settings: Rattus norvegicus, 168 h, 7 days; for inhibition in vivo at 0.01 mg: 0.01 mg/rat; for inhibition in vivo at 0.1 mg: 0.1 mg/rat; for inhibition in vivo at 1 mg: 1.0 mg/rat
Procedure: Groups of 5 male Sprague-Dawley rats each weighing 160-180 g were used. Under ether anesthesia, the dorsum of animals was closely clipped, and air sac was formed by injecting air (20 ml) subcutaneously. Next day cotton seed oil containing 1% croton oil was injected into the air sac. Drugs to be tested were suspended in the cotton seed oil containing 1% croton oil, and administered. After 7 days, the blood was taken from the animal under ether anesthesia. Then, the granuloma pouch fluid (exudate) was collected, and the fluid volume was measured. The pouch wall formed around granuloma and thymus were also excised and weighed.

[5] = read-out: Weight of granuloma, per cent of change of the controls, rat, paper disk
[6] = rat, paper disk, read-out: Weight of granuloma, per cent of change of the controls
[7] = read-out: Effects on granuloma weight, per cent of inhibition over the control
[8] = read-out: Effects on pouch fluid (exudate) volume, per cent of inhibition over the control

Row | SMILES | change in vivo at 0.1 %, 50 mg [1, 5] [%] | Adrenal weight, per cent of change vs control animals [2] [per cent] | Body weight, per cent of change on the 8th day vs 1st day [2] [per cent] | Spleen weight, per cent of change vs control animals [2] [per cent] | Thymus weight, per cent of change vs control animals [2] [per cent] | Leukocyte count [2] | other results
1 | C[C@@H]1C[C@H]2[C@@H]3CCC4=CC(=O)C=C[C@]4(C)[C@@]3(F)[C@@H](O)C[C@]2(C)[C@@]1(O)C(=O)CO[C@H]1O[C@H](CO)[C@H](O)[C@H](O)[C@H]1O [Compound 15α, galactosyldexamethasone] | -39.5 ± 1.8 | -48.3 ± 2.9 | 8.3 ± 1.0 | -35.7 ± 2.3 | -82.2 ± 3.3 | -22.6 ± 7.4 | 
2 | C[C@@H]1C[C@H]2[C@@H]3CCC4=CC(=O)C=C[C@]4(C)[C@@]3(F)[C@@H](O)C[C@]2(C)[C@@]1(O)C(=O)CO[C@H]1O[C@H](CO)[C@@H](O)[C@H](O)[C@@H]1O [Compound 25α, mannosyldexamethasone] | -18 ± 4.8 | -24.4 ± 3.4 | 16.1 ± 1.7 | -18.2 ± 2.2 | -32.6 ± 7.4 | -0.7 ± 9.0 | 
3 | C[C@@H]1C[C@H]2[C@@H]3CCC4=CC(=O)C=C[C@]4(C)[C@@]3(F)[C@@H](O)C[C@]2(C)[C@@]1(O)C(=O)CO[C@@H]1O[C@H](CO)[C@@H](O)[C@H](O)[C@H]1O [Compound 5β, glucosyldexamethasone] | -47.4 ± 2.9 | -49.6 ± 3.2 | 0.7 ± 1.4 | -56.0 ± 1.6 | -85.7 ± 2.6 | -46.6 ± 8.2 | 
4 | CC(=O)OC1C(C)OC(OCC(=O)C2(O)C(C)CC3C4CCC5=CC(=O)C=CC5(C)C4(F)C(O)CC32C)C(OC(C)=O)C1OC(C)=O (stereo not drawn) [Compound 74β, fucosyldexamethasone] |  |  |  |  |  |  | Weight of granuloma, per cent of change of the controls ([1]; rat, paper disk): 1.6 ± 16.2 per cent; Percent of inhibition of ear edema [3]: 14.1 ± 4.5%
5 | CC(=O)OC[C@H]1O[C@H](OCC(=O)[C@@]2(O)[C@H](C)C[C@H]3[C@@H]4CCC5=CC(=O)C=C[C@]5(C)[C@@]4(F)[C@@H](O)C[C@@]32C)[C@@H](OC(C)=O)[C@@H](OC(C)=O)[C@@H]1OC(C)=O [Compound 29, mannosyldexamethasone (per Ac derivative)] |  |  |  |  |  |  | Weight of granuloma, per cent of change of the controls ([1]; rat, paper disk): -35.7 ± 5.6 per cent; Percent of inhibition of ear edema [3]: 22.1 ± 4.7%
6 | CC1OC(OCC(=O)C2(O)C(C)CC3C4CCC5=CC(=O)C=CC5(C)C4(F)C(O)CC32C)C(O)C(O)C1O (stereo not drawn) [Compound 75β, β-fucosyldexamethasone] |  |  |  |  |  |  | Weight of granuloma, per cent of change of the controls ([1]; rat, paper disk): -10.0 ± 8.8 per cent; Percent of inhibition of ear edema [3]: 22.0 ± 4.7%
7 | CC(=O)N[C@H]1C(OCC(=O)[C@@]2(O)[C@H](C)C[C@H]3[C@@H]4CCC5=CC(=O)C=C[C@]5(C)[C@@]4(F)[C@@H](O)C[C@@]32C)O[C@H](CO)[C@H](O)[C@@H]1O (stereo partly drawn) [Compound 44', N-acetylgalactosaminyldexamethasone] |  |  |  |  |  |  | Weight of granuloma, per cent of change of the controls ([1]; rat, paper disk, listed as 44'): 3.3 ± 4.7 per cent; Percent of inhibition of ear edema ([3]; listed as 44'): 7.9 ± 7.2%
8 | Cc1ccc(C(=O)OC[C@H]2O[C@@H](OCC(=O)[C@@]3(O)CC[C@H]4[C@@H]5C[C@H](F)C6=CC(=O)C=C[C@]6(C)[C@@]5(F)[C@@H](O)C[C@@]43C)[C@H](OC(=O)c3ccc(C)cc3)[C@@H](OC(=O)c3ccc(C)cc3)[C@@H]2OC(=O)c2ccc(C)cc2)cc1 [Compound 105β, glucosyldiflupredonate (p-toluoyl derivative)] |  |  |  |  |  |  | change in vivo at 0.1 %, 50 mg [1, 6]: -1.2 ± 5.7%; inhibition in vivo at 0.01 mg [4, 7]: -5.9 ± 10.9%; inhibition in vivo at 0.01 mg [4, 8]: -8.1 ± 9.4%; inhibition in vivo at 0.1 mg [4, 7]: 22.1 ± 3.7%; inhibition in vivo at 0.1 mg [4, 8]: 24.8 ± 8.8%; inhibition in vivo at 1 mg [4, 7]: 53 ± 6.2%; inhibition in vivo at 1 mg [4, 8]: 76.4 ± 4.3%
9 | CC(=O)N[C@H]1C(OCC(=O)[C@@]2(O)[C@H](C)C[C@H]3[C@@H]4CCC5=CC(=O)C=C[C@]5(C)[C@@]4(F)[C@@H](O)C[C@@]32C)O[C@H](CO)[C@H](O)[C@@H]1O (stereo partly drawn) [Compound 45', N-acetylgalactosaminyldexamethasone] |  |  |  |  |  |  | Weight of granuloma, per cent of change of the controls ([1]; rat, paper disk, listed as 45'): -11.8 ± 10.1 per cent; Percent of inhibition of ear edema ([3]; listed as 45'): 21.0 ± 6.4%
10 | C[C@@H]1C[C@H]2[C@@H]3CCC4=CC(=O)C=C[C@]4(C)[C@@]3(F)[C@@H](O)C[C@]2(C)[C@@]1(O)C(=O)CO[C@@H]1O[C@H](CO)[C@H](O)[C@H](O)[C@H]1O [Compound 15β, galactosyldexamethasone] | -41 ± 2.6 | -47.1 ± 1.9 | 4.6 ± 0.9 | -43.2 ± 2.1 | -86.0 ± 1.4 | -37.0 ± 6.9 | 
11 | Cc1ccc(C(=O)OC[C@H]2O[C@@H](OCC(=O)[C@@]3(O)[C@@H](C)C[C@H]4[C@@H]5C[C@H](F)C6=CC(=O)C=C[C@]6(C)[C@@]5(F)[C@@H](O)C[C@@]43C)[C@H](OC(=O)c3ccc(C)cc3)[C@@H](OC(=O)c3ccc(C)cc3)[C@@H]2OC(=O)c2ccc(C)cc2)cc1 [Compound 107β, glucosyldiflorasone (p-toluoyl derivative)] |  |  |  |  |  |  | change in vivo at 0.1 %, 50 mg [1, 6]: -6.3 ± 5.5%; inhibition in vivo at 0.01 mg [4, 7]: -21.2 ± 19.2%; inhibition in vivo at 0.01 mg [4, 8]: -28.5 ± 18.8%; inhibition in vivo at 0.1 mg [4, 7]: -23.3 ± 21.4%; inhibition in vivo at 0.1 mg [4, 8]: -30.9 ± 20.9%; inhibition in vivo at 1 mg [4, 7]: 28.1 ± 12.5%; inhibition in vivo at 1 mg [4, 8]: 28.8 ± 15.2%
